Experiments:
Format in all cases: biochemical
PgcA [1] = target: T1, PgcA (Bacillus subtilis, UniProt P18159); test: LC-MS assay of glucosamine 6-phosphate formation; conditions: 5 mM MgCl2, 20 uM glucose-1,6-bisphosphate, 50 mM Tris-HCl pH 8.0; PNGM reaction
T1 construct: N-terminal 6xHis tag, tag cleavage not mentioned; expressed in E. coli DH5alpha, Ni-NTA purified
T1 sequence (P18159 1-581): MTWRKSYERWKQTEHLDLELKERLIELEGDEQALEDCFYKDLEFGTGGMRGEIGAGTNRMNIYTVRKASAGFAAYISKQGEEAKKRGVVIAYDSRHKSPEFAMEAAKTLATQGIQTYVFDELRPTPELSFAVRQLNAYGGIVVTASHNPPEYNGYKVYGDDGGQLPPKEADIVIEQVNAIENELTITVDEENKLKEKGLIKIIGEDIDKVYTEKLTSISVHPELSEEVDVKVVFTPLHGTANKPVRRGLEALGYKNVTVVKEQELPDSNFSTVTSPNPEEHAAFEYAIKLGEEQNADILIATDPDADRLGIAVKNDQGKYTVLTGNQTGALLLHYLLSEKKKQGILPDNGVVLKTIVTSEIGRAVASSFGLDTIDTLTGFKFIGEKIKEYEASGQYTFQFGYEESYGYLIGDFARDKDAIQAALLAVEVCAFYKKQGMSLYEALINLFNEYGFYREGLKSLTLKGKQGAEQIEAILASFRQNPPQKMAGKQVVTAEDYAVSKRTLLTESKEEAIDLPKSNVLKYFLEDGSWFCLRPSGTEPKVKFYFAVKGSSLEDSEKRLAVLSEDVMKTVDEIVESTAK

GlmM = target: T2, GlmM (Bacillus subtilis, UniProt O34824); test: LC-MS assay of glucosamine 6-phosphate formation; conditions: 5 mM MgCl2, 0.7 mM glucose-1,6-bisphosphate, 50 mM Tris-HCl pH 8.0; PNGM reaction
T2 construct: purified protein; tag and expression of GlmM not described separately
T2 sequence (O34824 1-448): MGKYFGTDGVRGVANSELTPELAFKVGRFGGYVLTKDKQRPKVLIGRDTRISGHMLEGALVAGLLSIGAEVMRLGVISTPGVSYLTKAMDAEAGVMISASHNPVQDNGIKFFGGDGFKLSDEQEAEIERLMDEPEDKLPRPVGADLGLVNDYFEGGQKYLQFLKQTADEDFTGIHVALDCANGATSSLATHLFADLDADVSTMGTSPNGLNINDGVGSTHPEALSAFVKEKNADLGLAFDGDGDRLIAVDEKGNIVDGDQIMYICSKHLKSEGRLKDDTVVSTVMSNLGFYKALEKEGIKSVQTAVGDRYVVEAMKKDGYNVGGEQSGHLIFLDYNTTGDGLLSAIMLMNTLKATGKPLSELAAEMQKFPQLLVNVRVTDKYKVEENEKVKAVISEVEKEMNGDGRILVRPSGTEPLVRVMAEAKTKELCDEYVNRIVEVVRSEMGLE

PgcA [2] = target: T1, PgcA; test: LC-MS assay of glucose 6-phosphate formation; conditions: 5 mM MgCl2, 20 uM glucose-1,6-bisphosphate, 50 mM Tris-HCl pH 8.0; PGM reaction

SMILES | KM (PgcA [1]) | KM (GlmM) | KM (PgcA [2])
N[C@H]1[C@@H](OP(=O)(O)O)O[C@H](CO)[C@@H](O)[C@@H]1O [GlcN-1-P] | using GlcN-1-P as substrate to monitor the PNGM reaction | GlmM from B. subtilis, which had an affinity for GlcN-1-P substrate | 
O=P(O)(O)O[C@H]1O[C@H](CO)[C@@H](O)[C@H](O)[C@H]1O [Glc-1-P] |  |  | Both PgcA and PgcA G47S were equally active in the PGM reaction

Reference: article PMC6797236, “Bacillus subtilis PgcA moonlights as a phosphoglucosamine mutase in support of peptidoglycan synthesis” (PLoS Genetics, 2019)
